Data set [1] deals with hot flashes, night sweats and other menopausal symptoms. The conditions noted are these: for Impact on reducing the menopausal symptoms (hot flashes, night sweats): 2009, patient on Tamoxifen, Clonidine given with Vitamin E. An excerpt:
One of ordinary skill in the art would appreciate that this specific example is not intended to limit the scope of the invention.
In September of 1993, a person who had been experiencing severe menstrual cycles required a partial hysterectomy. […] Approximately a year after surgery, they were placed on Cenestin™ (a kind of hormone replacement therapy, i.e., “HRT”).
At this time, the patient began taking dosages of Wellbutrin™ and receiving another hormone replacement therapy of estrogen and testosterone to treat the hot flashes, night sweats and other menopausal symptoms.
In November of 2008, the patient was diagnosed with Stage 2 breast cancer and the HRT was discontinued immediately. Subsequently, the patient underwent a lumpectomy and the removal of fourteen lymph nodes (one tested positive).
In December 2008, the patient went through an intense treatment of chemotherapy which lasted until April 2009. At this time, a less intense chemotherapy treatment was continued until November 2009. The patient also received radiation therapy from April 2009 until June 2009. At the end of the radiation therapy, the patient was started on a regimen of Tamoxifen™.
Clonidine™ is a direct-acting α2 adrenergic agonist that is used to treat several medical conditions. […] Both the Clonidine™ and the Wellbutrin™ were discontinued in June 2009.
It was originally developed for the treatment of epilepsy, and currently, gabapentin is widely used to relieve pain, especially neuropathic pain. […] At this time, the patient was treated with Effexor™ (generic name Venlafaxine), a medication which is used primarily for the treatment of major depression, generalized anxiety disorder, social anxiety disorder, obsessive—compulsive disorder, panic disorder, and menopausal hot flashes in adults.
At this time, the patient began Wellbutrin™ again to treat the hot flashes, night sweats and other menopausal symptoms.
The dosage continued and remained the same for another 5 days.

Data set [2] deals with hot flashes. The following applies: cited from earlier work.
In data set [3] the test system is hot flashes. The conditions noted are these: men; double blind, cross over study; cited from earlier work.
Data set [4] concerns hot flashes. Kind of data set: Dextromethorphan HBr in menopausal women with no breast cancer history; severity and frequency of hot flashes. Type of data set: in vivo, human. The following applies: 15 mg in the morning and 15 mg in the evening; summary of Table 1. The procedure:
The dosage given in these test cases was 15 mg in the morning and 15 mg in the evening of Dextromethorphan, e.g., DextromethorphanHBr. The decrease in the symptoms of hormonal variation was noted by assessing the severity and frequency of hot flashes.

Like-named read-outs stand apart in the source and are kept apart here.

Regarding `Clc1cccc(Cl)c1N=C1NCCN1` [clonidine], in data set [1], the “Impact on reducing the menopausal symptoms (hot flashes, night sweats)” value is “no impact”. For the same molecule, in the data set on hot flashes [2] (randomized clinical trials), the “Adverse effects (dry mouth, dizziness, blurred vision)” value is given as “common” and the “Efficacy versus placebo in preventing hot flashes” value is listed as “moderately more efficacious than placebo”. In the data set on hot flashes [2] (women treated with clonidine), the “Decrease of hot flash frequency greater than that seen with placebo” value is listed as 10-15%. The “Difference from placebo effect in self-reported hot flash frequency” value in the data set with hot flashes [3] is reported as “not statistically significant”.

As to `NCC1(CC(=O)O)CCCCC1` [gabapentin], the “Impact on reducing the menopausal symptoms (hot flashes, night sweats)” value in data set [1] is given as “no impact”. Also, the “Reduction of incidence of hot flashes” value with hot flashes [2] (pilot trials) was 42%-70%.

On to `CC(=O)O[C@]1(C(C)=O)CC[C@H]2[C@@H]3C=C(C)C4=CC(=O)CC[C@]4(C)[C@H]3CC[C@@]21C` [megestrol acetate], for which, in the data set on hot flashes [2] (men and women, placebo 20%), the “Reduction in self-reported hot flash frequency” value is given as roughly 80%.

Turning to `COc1ccc2c(c1)[C@]13CCCC[C@@H]1[C@H](C2)N(C)CC3` [Dextromethorphan HBr], the “Hot flashes, night sweats and other menopausal symptoms” value in data set [1] (30 mg per day (15 mg every 12 hours), by the third day) is “totally gone”. In addition, the “Occurrence of hot flashes, night sweats and other menopausal symptoms” value in data set [1] (30 mg per day (15 mg every 12 hours), two days after starting) was “reduced significantly”. For the same molecule, in data set [1] (after 8 days of 30 mg per day), the “Time to reoccurrence of menopausal symptoms after discontinuation” value is no more than 24 h. For the same molecule, in data set [1] (continuing Dextromethorphan HBr alone), the “Hot flashes, night sweats and menopausal symptoms after Wellbutrin was discontinued” value is “did not reoccur”. For the same molecule, the “Time to elimination of symptoms after again commencing treatment” value in data set [1] (human, in vivo) was no more than 24 h. Moreover, the “Women who no longer had hot flashes when on Dextromethorphan” value in the data set with hot flashes [4] is “four out of the five”.

`CNCCC(Oc1ccc(C(F)(F)F)cc1)c1ccccc1` (stereo not drawn) [Fluoxetine]: the “Reduction in hot-flash scores” value in the data set on hot flashes [2] (20 mg/day, placebo 36%) is listed as 50%.

For the molecule `CC/C(=C(\c1ccccc1)c1ccc(OCCN(C)C)cc1)c1ccccc1` [Tamoxifen™, tamoxifen], in data set [1] (human, in vivo), the “Hot flashes, night sweats and other menopausal symptoms since commencing treatment” value is on record as “increased in intensity”.

Regarding `CC(NC(C)(C)C)C(=O)c1cccc(Cl)c1` (stereo not drawn) [Wellbutrin™, bupropian], the “Impact on reducing the menopausal symptoms (hot flashes, night sweats)” value in data set [1] is on record as “no impact”. The “Frequency and intensity of hot flashes, night sweats and other menopausal symptoms (patient report)” value in data set [1] (Wellbutrin together with hormone replacement therapy of estrogen and testosterone, from 2006) is reported as “markedly reduced”.

On to `COc1ccc(C(CN(C)C)C2(O)CCCCC2)cc1` (stereo not drawn) [venlafaxine], for which the “Impact on reducing the menopausal symptoms (hot flashes, night sweats)” value in data set [1] is “no impact”. The “Reduction in hot-flash scores” value is listed as 37% with hot flashes [2] (randomized clinical trial, low dose (37.5 mg/day), placebo 27%); 61% with hot flashes [2] (randomized clinical trial, moderate and high doses (75 and 150 mg/day), statistically significant).

The record behind these values is patent US9457022B2, “Methods and compositions for treating or preventing symptoms of hormonal variations” (priority 2010, dated 2016).
